From US8263620B2, “Oxadiazole derivatives active on sphingosine-1-phosphate (SIP)” (Glaxo Group Limited, priority 2007, dated 2012)
Structures can show the parent of a compound that is named as a salt.

Tests used:
[1] = clinical studies, first 24 hours of treatment; cited from earlier work
circulating lymphocytes = details: animals and man; cited from earlier work
human S1P3 receptor = target: T1, human S1P3 receptor (Homo sapiens, UniProt Q99500); test: S1P3 GTPγS assay; assay type: biochemical; details: [35S]-GTPγS SPA, S1P3 RBL-2H3 membranes, agonist
T1 construct: expressed in transfected cells; membranes
Method: For membrane preparations all steps were performed at 4° C. Rat hepatoma cells stably expressing the human S1P1 receptor or Rat Basophilic Leukaemia cells (RBL) stably expressing human S1P3 receptor were grown to 80% confluency before being harvested into 10 ml Phospho-Buffered Saline (PBS) and centrifuged at 1200 rpm for 5 minutes. After removal of the supernatant, the pellet was re-suspended and cells were homogenised within a glass Waring blender for 2 bursts of 15 secs in 200 mls of buffer (50 mM HEPES, 1 mM leupeptin, 25 μg/ml bacitracin, 1 mM EDTA, 1 mM PMSF, 2 μM pepstatin A). The blender was plunged into ice for 5 mins after the first burst and 10-40 mins after the final burst to allow foam to dissipate. The material was then spun at 500 g for 20 mins and the supernatant spun for 36 mins at 48,000 g. The pellet was resuspended in the same buffer as above but without PMSF and pepstatin A. The material was then forced through a 0.6 mm needle, made up to the required volume, (usually ×4 the volume of the original cell pellet), aliquoted and stored frozen at −80° C.
After 30 minutes pre-coupling on ice the bead and membrane suspension was dispensed into a white Greiner polypropylene LV384-well plate (5 μl/well), containing 0.1 μl of the compound. 5 μl/well [^35S]-GTPγS (0.5 nM final radioligand conc) made up in assay buffer was then added to agonist plates. The final assay cocktail (10.1 μl) was centrifuged at 1000 rpm for 5 minutes then read immediately on a Viewlux reader.
All test compounds were dissolved in DMSO at a concentration of 10 mM and were prepared in 100% DMSO using a 1 in 4 dilution step to provide 11 point dose response curves. The dilutions were transferred to the assay plates ensuring that the DMSO concentration was constant across the plate for all assays.
All data was normalized to the mean of 16 high and 16 low control wells on each plate. A four parameter curve fit was then applied.
S1P3 expressing RBL membranes (1.5 μg/well) were homogenised by passing through a 23 G needle. […] GDP 10 μM FAC and saponin 90 μg/ml FAC were also added
After 30 minutes precoupling on ice, the bead and membrane suspension was dispensed into white Greiner polypropylene LV 384-well plates (5 μl/well), containing 0.1 μl of compound. 5 μl/well [^35S]-GTPγS (0.5 nM for S1P1 or 0.3 nM for S1P3 final radioligand concentration) made in assay buffer was then added to the plates. The final assay cocktail (10.1 μl) was then sealed, spun on a centrifuge, then read immediately on a Viewlux instrument.

T1 sequence (Q99500 whole entry): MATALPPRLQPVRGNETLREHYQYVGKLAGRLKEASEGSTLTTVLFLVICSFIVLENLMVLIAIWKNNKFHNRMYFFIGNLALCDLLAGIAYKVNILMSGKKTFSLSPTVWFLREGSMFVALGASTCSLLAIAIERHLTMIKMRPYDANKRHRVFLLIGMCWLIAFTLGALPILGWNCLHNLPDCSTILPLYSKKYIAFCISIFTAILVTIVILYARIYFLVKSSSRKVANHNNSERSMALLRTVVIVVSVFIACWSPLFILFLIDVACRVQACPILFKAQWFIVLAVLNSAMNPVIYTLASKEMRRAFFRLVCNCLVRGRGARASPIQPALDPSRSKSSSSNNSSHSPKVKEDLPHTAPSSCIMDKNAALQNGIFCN

SMILES | bradycardia [1] | effect on circulating lymphocytes (circulating lymphocytes) | EC50 (human S1P3 receptor) [µM]
CCCCCCCCc1ccc(CCC(N)(CO)CO)cc1 [FTY720] | results in bradycardia in the first 24 hours of treatment | reduce circulating lymphocytes | –
Cc1c(-c2noc(-c3ccc(OC(C)C)c(C#N)c3)n2)ccc2c1CCNC2CC(=O)O (stereo not drawn) [Example 4, [6-(5-{3-Cyano-4-[(1-methylethyl)oxy]phenyl}-1,2,4-oxadiazol-3-yl)-5-methyl-1,2,3,4-tetrahydro-1-isoquinolinyl]acetic acid trifluoroacetate] | – | – | > 10
Cc1c(-c2noc(-c3ccc(OC(C)C)c(Cl)c3)n2)ccc2c1CCNC2CC(=O)O (stereo not drawn) [Example 3, [6-(5-{3-Chloro-4-[(1-methylethyl)oxy]phenyl}-1,2,4-oxadiazol-3-yl)-5-methyl-1,2,3,4-tetrahydro-1-isoquinolinyl]acetic acid trifluoroacetate] | – | – | > 10
Cc1c(-c2noc(-c3ccc(OC(C)C)c(C#N)c3)n2)ccc2c1CCNC2CCCC(=O)O (stereo not drawn) [Example 6, 4-[6-(5-{3-Cyano-4-[(1-methylethyl)oxy]phenyl}-1,2,4-oxadiazol-3-yl)-5-methyl-1,2,3,4-tetrahydro-1-isoquinolinyl]butanoic acid trifluoroacetate] | – | – | > 10
Cc1c(-c2noc(-c3ccc(OC(C)C)c(Cl)c3)n2)ccc2c1CCNC2CCCC(=O)O (stereo not drawn) [Example 5, 4-[6-(5-{3-Chloro-4-[(1-methylethyl)oxy]phenyl}-1,2,4-oxadiazol-3-yl)-5-methyl-1,2,3,4-tetrahydro-1-isoquinolinyl]butanoic acid trifluoroacetate] | – | – | > 10
